Test results: ChEMBL document CHEMBL1147193, “New 5-substituted thiazolo[3,2-b][1,2,4]triazol-6-ones: synthesis and anticancer evaluation” (2007)

Tests used:
Assay type in all cases: functional
IGROV-1 = assay: Growth inhibition of human IGROV1 cells after 48 hrs by SRB protein assay; conditions: IGROV-1, 48 h
UO-31 = assay: Growth inhibition of human UO31 cells after 48 hrs by SRB protein assay; conditions: UO-31, 48 h
NCI-H460 [1] = assay: Growth inhibition of human NCI-H460 cells after 48 hrs by SRB protein assay; conditions: NCI-H460, 48 h
KM12 = assay: Growth inhibition of human KM12 cells after 48 hrs by SRB protein assay; conditions: KM12, 48 h
HT-29 = assay: Growth inhibition of human HT29 cells after 48 hrs by SRB protein assay; conditions: HT-29, 48 h
UACC-62 = assay: Growth inhibition of human UACC62 cells after 48 hrs by SRB protein assay; conditions: UACC-62, 48 h
SK-OV-3 = assay: Growth inhibition of human SK-OV-3 cells after 48 hrs by SRB protein assay; conditions: SK-OV-3, 48 h
[2] = Growth inhibition of human MALME 3M cells after 48 hrs by SRB protein assay
SK-MEL-28 = assay: Growth inhibition of human SK-MEL-28 cells after 48 hrs by SRB protein assay; conditions: SK-MEL-28, 48 h
TK-10 = assay: Growth inhibition of human TK10 cells after 48 hrs by SRB protein assay; conditions: TK-10, 48 h
NCI/ADR-RES = assay: Growth inhibition of human NCI/ADR-RES cells after 48 hrs by SRB protein assay
HCT-116 = assay: Growth inhibition of human HCT116 cells after 48 hrs by SRB protein assay; conditions: HCT-116, 48 h
BT-549 = assay: Growth inhibition of human BT549 cells after 48 hrs by SRB protein assay; conditions: BT-549, 48 h
SW-620 = assay: Growth inhibition of human SW620 cells after 48 hrs by SRB protein assay; conditions: SW-620, 48 h
ACHN = assay: Growth inhibition of human ACHN cells after 48 hrs by SRB protein assay
HOP-62 = assay: Growth inhibition of human HOP62 cells after 48 hrs by SRB protein assay; conditions: HOP-62, 48 h
LOX IMVI = assay: Growth inhibition of human LOX IMVI cells after 48 hrs by SRB protein assay
SK-MEL-5 = assay: Growth inhibition of human SK-MEL-5 cells after 48 hrs by SRB protein assay; conditions: SK-MEL-5, 48 h
NCI-H322M = assay: Growth inhibition of human NCI-H322M cells after 48 hrs by SRB protein assay
MDA-MB-435 = assay: Growth inhibition of human MDA-MB-435 cells after 48 hrs by SRB protein assay; conditions: MDA-MB-435, 48 h
786-0 = assay: Growth inhibition of human 786-0 cells after 48 hrs by SRB protein assay; conditions: 786-0, 48 h
MOLT-4 = assay: Growth inhibition of human MOLT4 cells after 48 hrs by SRB protein assay; conditions: MOLT-4, 48 h
UACC-257 = assay: Growth inhibition of human UACC257 cells after 48 hrs by SRB protein assay; conditions: UACC-257, 48 h
A549 = assay: Growth inhibition of human A549/ATCC cells after 48 hrs by SRB protein assay; conditions: A549, 48 h
U-251 = assay: Growth inhibition of human U251 cells after 48 hrs by SRB protein assay; conditions: U-251, 48 h
COLO 205 = assay: Growth inhibition of human COLO205 cells after 48 hrs by SRB protein assay; conditions: COLO 205, 48 h
OVCAR-4 = assay: Growth inhibition of human OVCAR4 cells after 48 hrs by SRB protein assay; conditions: OVCAR-4, 48 h
SK-MEL-2 = assay: Growth inhibition of human SK-MEL-2 cells after 48 hrs by SRB protein assay; conditions: SK-MEL-2, 48 h
RXF 393 = assay: Growth inhibition of human RXF393 cells after 48 hrs by SRB protein assay; conditions: RXF 393, 48 h
PC-3 = assay: Growth inhibition of human PC3 cells after 48 hrs by SRB protein assay; conditions: PC-3, 48 h
MCF7 = assay: Growth inhibition of human MCF7 cells after 48 hrs by SRB protein assay; conditions: MCF7, 48 h
M14 = assay: Growth inhibition of human M14 cells after 48 hrs by SRB protein assay; conditions: M14, 48 h
K562 = assay: Growth inhibition of human K562 cells after 48 hrs by SRB protein assay; conditions: K562, 48 h
OVCAR-5 = assay: Growth inhibition of human OVCAR5 cells after 48 hrs by SRB protein assay; conditions: OVCAR-5, 48 h
CCRF-CEM = assay: Growth inhibition of human CCRF-CEM cells after 48 hrs by SRB protein assay
SF-268 = assay: Anticancer activity against human SF268 cells assessed as growth of cells at 100 uM relative to untreated cells
NCI-H460 [3] = assay: Anticancer activity against human NCI-H460 cells assessed as growth of cells at 100 uM relative to untreated cells
NCI-H522 = assay: Growth inhibition of human NCI-H522 cells after 48 hrs by SRB protein assay; conditions: NCI-H522, 48 h
HOP-92 = assay: Growth inhibition of human HOP92 cells after 48 hrs by SRB protein assay; conditions: HOP-92, 48 h
HCT-15 = assay: Growth inhibition of human HCT15 cells after 48 hrs by SRB protein assay; conditions: HCT-15, 48 h

COc1ccc(NC(=O)CC2Sc3ncnn3C2=O)cc1 (stereo not drawn)
GI50 (IGROV-1): 67.6 µM
TGI (IGROV-1; read-out: Log TGI (converted)): > 100 µM
GI50 (UO-31): 23.4 µM
TGI (UO-31; read-out: Log TGI (converted)): 53.7 µM
GI50 (NCI-H460 [1]): > 100 µM
TGI (NCI-H460 [1]; read-out: Log TGI (converted)): > 100 µM
GI50 (KM12): > 100 µM
TGI (KM12; read-out: Log TGI (converted)): > 100 µM
GI50 (HT-29): 47.9 µM
TGI (HT-29; read-out: Log TGI (converted)): > 100 µM
GI50 (UACC-62): > 100 µM
TGI (UACC-62; read-out: Log TGI (converted)): > 100 µM
GI50 (SK-OV-3): > 100 µM
TGI (SK-OV-3; read-out: Log TGI (converted)): > 100 µM
GI50 [2]: 17.4 µM
TGI ([2]; read-out: Log TGI (converted)): 33.9 µM
GI50 (SK-MEL-28): 26.9 µM
TGI (SK-MEL-28; read-out: Log TGI (converted)): > 57.5 µM
GI50 (TK-10): 16.6 µM
TGI (TK-10; read-out: Log TGI (converted)): 30.9 µM
GI50 (NCI/ADR-RES): 31.6 µM
TGI (NCI/ADR-RES; read-out: Log TGI (converted)): > 100 µM
GI50 (HCT-116): 17 µM
TGI (HCT-116; read-out: Log TGI (converted)): 30.9 µM
GI50 (BT-549): > 100 µM
TGI (BT-549; read-out: Log TGI (converted)): > 100 µM
GI50 (SW-620): 37.2 µM
TGI (SW-620; read-out: Log TGI (converted)): > 100 µM
GI50 (ACHN): 21.4 µM
TGI (ACHN; read-out: Log TGI (converted)): 47.9 µM
GI50 (HOP-62): > 100 µM
TGI (HOP-62; read-out: Log TGI (converted)): > 100 µM
GI50 (LOX IMVI): 21.9 µM
TGI (LOX IMVI; read-out: Log TGI (converted)): 42.7 µM
GI50 (SK-MEL-5): 17.4 µM
TGI (SK-MEL-5; read-out: Log TGI (converted)): 35.5 µM
GI50 (NCI-H322M): 97.7 µM
TGI (NCI-H322M; read-out: Log TGI (converted)): > 100 µM
GI50 (MDA-MB-435): 26.3 µM
TGI (MDA-MB-435; read-out: Log TGI (converted)): 70.8 µM
GI50 (786-0): 16.6 µM
TGI (786-0; read-out: Log TGI (converted)): 30.9 µM
GI50 (MOLT-4): 28.8 µM
TGI (MOLT-4; read-out: Log TGI (converted)): 70.8 µM
GI50 (UACC-257): 20 µM
TGI (UACC-257; read-out: Log TGI (converted)): 36.3 µM
GI50 (A549): 61.7 µM
TGI (A549; read-out: Log TGI (converted)): > 100 µM
GI50 (U-251): 22.4 µM
TGI (U-251; read-out: Log TGI (converted)): 44.7 µM
GI50 (COLO 205): 30.2 µM
TGI (COLO 205; read-out: Log TGI (converted)): 79.4 µM
GI50 (OVCAR-4): 57.5 µM
TGI (OVCAR-4; read-out: Log TGI (converted)): > 100 µM
GI50 (SK-MEL-2): > 100 µM
TGI (SK-MEL-2; read-out: Log TGI (converted)): > 100 µM
GI50 (RXF 393): 15.5 µM
TGI (RXF 393; read-out: Log TGI (converted)): 41.7 µM
GI50 (PC-3): 23.4 µM
TGI (PC-3; read-out: Log TGI (converted)): 56.2 µM
GI50 (MCF7): 25.1 µM
TGI (MCF7; read-out: Log TGI (converted)): 64.6 µM
GI50 (M14): 18.2 µM
TGI (M14; read-out: Log TGI (converted)): 33.9 µM
GI50 (K562): 31.6 µM
TGI (K562; read-out: Log TGI (converted)): > 100 µM
GI50 (OVCAR-5): 18.2 µM
TGI (OVCAR-5; read-out: Log TGI (converted)): 32.4 µM
GI50 (CCRF-CEM): 20.4 µM
TGI (CCRF-CEM; read-out: Log TGI (converted)): 41.7 µM
Activity (SF-268): 107%
Activity (NCI-H460 [3]): 0%
GI50 (NCI-H522): 19.5 µM
TGI (NCI-H522; read-out: Log TGI (converted)): 43.7 µM
GI50 (HOP-92): 21.9 µM
TGI (HOP-92; read-out: Log TGI (converted)): 49 µM
GI50 (HCT-15): 24.5 µM
TGI (HCT-15; read-out: Log TGI (converted)): 52.5 µM
